Results taken from patent publication US20090215025A1, “SMALL PEPTIDIC AND PEPTIDO-MIMETIC AFFINITY LIGANDS FOR FACTOR VIII AND FACTOR VIII-LIKE PROTEINS” (TECHNISCHE UNIVERSITAT MUNCHEN, priority 2005, published 2009).

How the values were obtained:
[1] = biological target: T1, ReFacto® (recombinant form of FVIII) (Homo sapiens, UniProt P00451, DEL763-1656); assay: Binding of 125I-ReFacto to peptide-coated resin; details: resin coated with peptide
T1 construct: purchased Wyeth-Ayerst Pharmacia and Upjohn; host or cells: CHO cells
T1 sequence (P00451 with tags, fused parts or gaps DEL763-1656 limits assumed): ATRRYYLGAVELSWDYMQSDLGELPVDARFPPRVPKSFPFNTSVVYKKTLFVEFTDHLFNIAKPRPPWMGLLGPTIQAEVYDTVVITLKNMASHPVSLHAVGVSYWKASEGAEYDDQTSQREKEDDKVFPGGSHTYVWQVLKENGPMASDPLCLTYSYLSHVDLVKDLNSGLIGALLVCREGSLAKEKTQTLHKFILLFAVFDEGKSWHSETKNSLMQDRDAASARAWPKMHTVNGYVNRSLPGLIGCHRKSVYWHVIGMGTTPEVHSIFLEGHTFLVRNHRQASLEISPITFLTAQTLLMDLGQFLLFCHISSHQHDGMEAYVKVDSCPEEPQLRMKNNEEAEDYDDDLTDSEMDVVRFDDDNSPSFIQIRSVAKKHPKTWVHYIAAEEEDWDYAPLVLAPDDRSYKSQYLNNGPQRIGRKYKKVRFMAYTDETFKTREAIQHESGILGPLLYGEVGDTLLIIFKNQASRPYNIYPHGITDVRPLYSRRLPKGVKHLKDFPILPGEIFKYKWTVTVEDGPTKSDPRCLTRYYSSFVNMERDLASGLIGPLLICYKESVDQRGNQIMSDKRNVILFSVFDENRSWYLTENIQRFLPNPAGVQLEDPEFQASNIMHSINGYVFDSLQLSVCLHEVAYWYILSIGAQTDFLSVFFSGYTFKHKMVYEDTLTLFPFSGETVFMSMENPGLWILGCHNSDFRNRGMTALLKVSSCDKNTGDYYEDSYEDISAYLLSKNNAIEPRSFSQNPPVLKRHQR
T1 sequence (P00451 1668-2351 limits assumed): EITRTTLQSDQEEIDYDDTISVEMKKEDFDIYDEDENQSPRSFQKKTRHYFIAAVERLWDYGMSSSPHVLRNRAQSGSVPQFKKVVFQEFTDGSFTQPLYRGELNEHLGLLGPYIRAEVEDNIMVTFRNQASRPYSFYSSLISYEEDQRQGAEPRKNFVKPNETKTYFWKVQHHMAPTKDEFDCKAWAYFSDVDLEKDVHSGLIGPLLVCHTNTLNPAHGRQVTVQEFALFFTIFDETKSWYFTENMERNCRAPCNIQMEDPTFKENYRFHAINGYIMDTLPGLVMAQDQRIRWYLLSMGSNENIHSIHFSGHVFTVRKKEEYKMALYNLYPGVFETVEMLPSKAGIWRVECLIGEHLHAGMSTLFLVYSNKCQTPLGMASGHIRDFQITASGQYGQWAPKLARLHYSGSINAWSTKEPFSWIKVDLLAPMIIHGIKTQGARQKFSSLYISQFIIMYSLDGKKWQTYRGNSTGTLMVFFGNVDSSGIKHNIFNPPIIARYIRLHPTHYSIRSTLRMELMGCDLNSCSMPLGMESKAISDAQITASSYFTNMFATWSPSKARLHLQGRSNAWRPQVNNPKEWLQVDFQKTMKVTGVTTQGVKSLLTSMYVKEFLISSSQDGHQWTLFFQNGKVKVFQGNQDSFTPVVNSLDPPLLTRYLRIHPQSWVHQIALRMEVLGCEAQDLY
Experimental: (§1) The resin with immobilized peptides was washed in the binding buffer (0.01 M Hepes, 0.1 M NaCl, 5 mM CaCl2, 0.01% Tween-80). Subsequently, the resin was diluted in the binding buffer as 1:7 slurry and aliquoted into Eppendorf tubes (40 μl per tube). ^125I-pd-FVIII (100000 cpm in 10 μl) was added to the tubes and the volume of the mixture was adjusted to 100 μl by adding 50 μl of the binding buffer containing 4% BSA to give a 2% final concentration of BSA. After 2 hours of incubation at room temperature on a rotator, the samples were washed 4 times in the binding. […] After four washes the tubes with pellet without supernatant were counted for radioactivity. The resin without peptide was processed similarly to account for non-specific pd-FVIII binding to tubes and resin itself, and the radioactivity in this control tube was considered as a background value. Since ^125I-pd-FVIII contains the some fraction damaged during radiolabeling, binding was calculated as a percent of maximal achievable binding, determined in separate experiment with anti-FVIII Mab 8860-coated resin. […]
(§2) Kogenate® and ReFacto® were iodinated in the same manner as described in Example 1 with respect to the pd-FVIII. Protein binding was measured using the same procedures as described in Example 1 above.

[2] = biological target: T2, Kogenate® (recombinant form of FVIII) (Homo sapiens, UniProt P00451); assay: Binding of 125I-Kogenate to peptide-coated resin; details: resin coated with peptide
T2 construct: purchased Bayer; host or cells: baby hamster kidney (BHK) cells
Experimental: as §1, §2

[3] = biological target: T3, plasma-derived (pd-) human Factor VIII (FVIII) (Homo sapiens, UniProt P00451); assay: Binding of 125I-labeled pd-FVIII to peptides immobilized on Toyopearl AF-Epoxy-650M resin (micro-beads assay); details: Table 1
T3 construct: from tissue; host or cells: human blood plasma (FVIII concentrate)
Experimental: Peptides P1 to P25 were immobilized on the Toyopearl AF-Epoxy-650M resin (Tosoh Biosep) as described by Jungbauer et al. For immobilization, 2.5 mg of each peptide was dissolved in 0.25 mL of the immobilization buffer (0.2 M sodium bicarbonate, pH 10.3), and 0.036 g of the dry resin powder (corresponding to 0.125 mL of swollen resin) was added, followed by incubation of the mixture with gentle rotation for 48 hours. Upon incubation for 48 hours the resin was washed once with immobilization buffer, once with 1 M NaCl and then 3 times with binding buffer, and binding of ^125I-labeled pd-FVIII to the peptide-coated and control resin was tested. The coupling density of each peptide in each of the reported experiments was as mentioned in Table 1. The control 0.25 mL portion of the resin was similarly treated in parallel experiment in the absence of peptide and was subsequently used as a control (designated as Background) in ^125I-pd-FVIII binding experiments. ^125I-pd-FVIII Bound/Background ratios were calculated as the amount of ^125I-pd-FVIII, bound to an immobilized peptide, divided by that bound to uncoated control resin, prepared as described above. This ratio represents a Signal/Noise ratio for the micro-beads assay, since ^125I-pd-FVIII bound to peptide represents the signal value and ^125I-pd-FVIII bound to peptide-uncoated resin represents the background (noise) value.
Plasma-derived (pd-) human Factor VIII (FVIII) was purified from concentrate by immunoaffinity chromatography on an anti-FVIII monoclonal antibody column followed by subsequent concentration of pd-FVIII by ion-exchange chromatography using Resource Q HR5/5 column. To separate FVIII from vWf, concentrate was incubated in 0.35 M NaCl, 0.04 M CaCl2, prior to affinity purification.
Trace amounts of vWf, which are potentially present in pd-FVIII preparation, were removed by passing pd-FVIII preparation through the column with anti-vWf high affinity monoclonal antibody, immobilized at the density 1.4 mg per mL of resin.
Ten μg of purified pd-FVIII were iodinated using lactoperoxidase beads and 0.5 mCi of Na^125I.
The resin with immobilized peptides was washed in the binding buffer (0.01 M Hepes, 0.1 M NaCl, 5 mM CaCl2, 0.01% Tween-80). Subsequently, the resin was diluted in the binding buffer as 1:7 slurry and aliquoted into Eppendorf tubes (40 μl per tube). ^125I-pd-FVIII (100000 cpm in 10 μl) was added to the tubes and the volume of the mixture was adjusted to 100 μl by adding 50 μl of the binding buffer containing 4% BSA to give a 2% final concentration of BSA. After 2 hours of incubation at room temperature on a rotator, the samples were washed 4 times in the binding. After each wash the tubes were centrifuged at 5000 rpm for 1 min in an Eppendorf microcentrifuge, supernatant was discarded, and the resin was re-suspended in the washing buffer, followed by centrifugation under the same conditions. After four washes the tubes with pellet without supernatant were counted for radioactivity. The resin without peptide was processed similarly to account for non-specific pd-FVIII binding to tubes and resin itself, and the radioactivity in this control tube was considered as a background value. Since ^125I-pd-FVIII contains the some fraction damaged during radiolabeling, binding was calculated as a percent of maximal achievable binding, determined in separate experiment with anti-FVIII Mab 8860-coated resin.
All the measurements were performed in duplicates. Each experiment was performed using two independently prepared immobilized peptide samples. The data presented in each figure are the mean values of the four determinations: duplicate determination in the two assays performed with beads on which peptides were independently immobilized on the different days. […]

T3 sequence (P00451 20-1667 limits assumed, one chain of several): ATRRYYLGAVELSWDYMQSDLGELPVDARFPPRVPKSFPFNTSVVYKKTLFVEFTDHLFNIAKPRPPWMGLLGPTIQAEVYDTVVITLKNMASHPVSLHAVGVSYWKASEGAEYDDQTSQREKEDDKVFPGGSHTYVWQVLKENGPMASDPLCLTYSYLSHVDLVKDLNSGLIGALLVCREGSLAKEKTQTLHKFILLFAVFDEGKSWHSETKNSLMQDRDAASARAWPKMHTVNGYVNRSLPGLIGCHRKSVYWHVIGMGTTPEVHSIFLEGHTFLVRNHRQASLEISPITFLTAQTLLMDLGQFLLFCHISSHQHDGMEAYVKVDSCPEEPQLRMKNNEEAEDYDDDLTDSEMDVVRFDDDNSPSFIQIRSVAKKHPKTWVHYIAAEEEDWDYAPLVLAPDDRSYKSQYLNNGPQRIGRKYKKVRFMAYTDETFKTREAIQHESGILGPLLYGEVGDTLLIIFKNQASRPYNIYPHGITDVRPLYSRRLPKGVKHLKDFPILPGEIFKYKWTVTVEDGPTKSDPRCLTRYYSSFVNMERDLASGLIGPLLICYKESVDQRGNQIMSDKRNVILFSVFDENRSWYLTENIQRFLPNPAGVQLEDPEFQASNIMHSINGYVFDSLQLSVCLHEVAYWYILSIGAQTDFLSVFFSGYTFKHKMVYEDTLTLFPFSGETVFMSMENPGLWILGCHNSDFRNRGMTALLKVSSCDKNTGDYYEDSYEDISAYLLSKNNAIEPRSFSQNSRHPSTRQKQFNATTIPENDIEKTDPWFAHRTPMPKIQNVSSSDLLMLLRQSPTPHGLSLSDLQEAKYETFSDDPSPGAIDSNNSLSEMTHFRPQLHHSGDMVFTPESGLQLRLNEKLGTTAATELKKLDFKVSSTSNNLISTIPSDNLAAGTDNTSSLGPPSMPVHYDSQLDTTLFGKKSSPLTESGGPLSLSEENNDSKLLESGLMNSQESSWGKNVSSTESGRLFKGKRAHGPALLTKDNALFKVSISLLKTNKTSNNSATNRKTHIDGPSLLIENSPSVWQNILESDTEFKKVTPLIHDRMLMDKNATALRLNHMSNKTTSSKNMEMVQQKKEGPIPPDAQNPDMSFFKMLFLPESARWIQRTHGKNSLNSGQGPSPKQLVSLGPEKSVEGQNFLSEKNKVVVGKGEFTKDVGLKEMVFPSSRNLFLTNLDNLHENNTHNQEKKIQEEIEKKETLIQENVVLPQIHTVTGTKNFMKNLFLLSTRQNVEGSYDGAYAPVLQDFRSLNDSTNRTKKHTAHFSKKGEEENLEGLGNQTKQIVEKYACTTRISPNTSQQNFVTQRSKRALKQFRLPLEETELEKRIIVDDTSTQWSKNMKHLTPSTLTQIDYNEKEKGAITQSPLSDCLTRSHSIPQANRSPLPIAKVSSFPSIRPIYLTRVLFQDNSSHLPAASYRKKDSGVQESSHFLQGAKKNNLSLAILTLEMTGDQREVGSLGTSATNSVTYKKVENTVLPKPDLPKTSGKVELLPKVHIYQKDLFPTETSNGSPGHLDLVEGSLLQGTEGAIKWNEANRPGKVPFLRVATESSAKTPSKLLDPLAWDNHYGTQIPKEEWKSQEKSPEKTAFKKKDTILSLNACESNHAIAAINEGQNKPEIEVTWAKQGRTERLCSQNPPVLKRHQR
T2 sequence (P00451 20-1667 limits assumed, one chain of several): as above

IAA-Glu-Tyr-Cys-OH [Compound P15]
125I-ReFacto binding (% of total) [1]: 54.9 ± 6.3 % of total
125I-Kogenated FS binding (% of total) [2]: 49.6 ± 1.7 % of total
Binding, rel. to control ([3]; 125I-pd-FVIII Bound/Background ratio versus uncoated control resin): 39.3 ± 0.3
% Binding pdFVIII ([3]; immobilized on Toyopearl AF-Epoxy-650M, percent of maximal achievable binding (anti-FVIII Mab 8860-coated resin), mean of four determinations): 75.4 ± 0.6%
